Reference: patent US20120022142A1, “RNA Interference Mediated Inhibition of Signal Transducer and Activator of Transcription 1 (STAT1) Gene Expression Using Short Interfering Nucleic Acid (siNA)” (Merck Sharp & Dohme Corp., priority 2009, published 2012)
[invAb] = inverted abasic unit; d = 2'-deoxy (DNA); m = 2'-O-methyl; r = 2'-OH (RNA); f = 2'-fluoro

Experiments:
[1] = tested on: STAT1 human mRNA; assay: Initial screen of siNAs: STAT1 mRNA knock-down in A549 cells (96-well transfection, Taqman RT-PCR); assay type: cell-based; details: 10 nM siNA, 24 hrs, normalized against GAPDH, average of 2 experiments
Procedure: A549 (human; ATCC cat# CCL-185): Cells were cultured at 37° C. in the presence of 5% CO2 and grown in Ham's F12K medium with 2 mM L-glutamine adjusted to contain 1.5 g/L sodium bicarbonate and supplemented with fetal bovine serum at a final concentration of 10% and 100 μg/mL of streptomycin and 100 U/mL penicillin.
(§1) Cells were plated in all wells of a tissue-culture treated, 96-well plate at a final count of 5000 cells/well in 100 μL of the appropriate culture media. The cells were cultured for 24 hours after plating at 37° C. in the presence of 5% CO2.
(§2) After 24 hours, complexes containing siNA and RNAiMax were created as follows: A solution of RNAiMax diluted 33-fold in OPTI-MEM was prepared. In parallel, solutions of the siNAs for testing were prepared to a final concentration of 120 nM in OPTI-MEM. After incubation of RNAiMax/OPTI-MEM solution at room temperature for 5 min, an equal volume of the siNA solution and the RNAiMax solution were added together for each of the siNAs.
(§3) This solution was incubated at room temperature for 20 minutes. After incubation, 20 uL of the solution was added to each of the relevant wells. The final concentration of siNA in each well was 10 nM and the final volume of RNAiMax in each well was 0.3 ul.
(§4) The time of incubation with the RNAiMax-siNA complexes was 24 hours and there was no change in media between transfection and harvesting, unless otherwise indicated.
(§5) RNA was extracted from a 96-well plate using the TaqMan® Gene Expression Cells-to-CT™ Kit (Cat# 4399002) with a modified protocol. Briefly, a 60 uL (1 plate) or 110 uL (2 plates) of the Lysis Solution with DNase I was dispensed into each well of the Lysis Buffer Plate (twin.tec full skirt plate). The lysis buffer and stop plates were stored at 4° C. until the cells were washed.
(§6) The culture medium was aspirated and discarded from the wells of the culture plate. 50 uL of chilled DPBS was added to each well, then aspirated and discarded. The lysis was performed automatically using a BioMek FX instrument and method. After the Biomek method was completed, the lysis plate was incubated for 2 min at room temperature. The lysis plate can be stored for 2 hours at 4° C., or at −20° C. or −80° C. for two months.
(§7) Each well of the reverse transcription plate required 10 uL of 2× reverse transcriptase Buffer, 1 uL of 20× reverse transcription enzyme and 2 uL of nuclease-free water. The reverse transcription master mix was prepared by mixing 2× reverse transcription buffer, 20× reverse transcription enzyme mix, and nuclease-free water. 13 uL of the reverse transcription master mix was dispensed into each well of the reverse transcription plate (semi-skirted). A separate reverse transcription plate was prepared for each cell plate. The plate was loaded onto a Biomek NX or Biomek FX Dual-96 and the Biomek method was run. The program is programmed to automatically added 7 uL of lysate from the cell lysis procedure described above into each well of the reverse transcription plate. The plate is sealed and spun on a centrifuge (1000 rpm for 30 seconds) to settle the contents to the bottom of the reverse transcription plate. The plate is placed in a thermocycler at 37° C. for 60 min, 95° C. for 5 min, and 4° C. until the plate is removed from the thermocycler. Upon removal, if not used immediately, the plate was frozen at −20° C.
(§8) A series of probes and primers were used to detect the various mRNA transcripts of the genes of β-Actin (human cell line only), and of STAT1 and GAPDH in mouse and human cell lines. All Taqman probes and primers for the experiments here-in described were supplied as pre-validated sets by Applied Biosystems, Inc. (see Table 2).
The assays were performed on an ABI 7900 instrument, according to the manufacturer's instructions.
Within each experiment, the baseline was set in the exponential phase of the amplification curve, and based on the intersection point of the baselines with the amplification curve, a Ct value was assigned by the instrument. […]

[2] = tested on: STAT1 mouse mRNA; assay: Initial screen of siNAs: STAT1 mRNA knock-down in NIH 3T3 cells (96-well transfection, Taqman RT-PCR); assay type: cell-based; details: 10 nM siNA, 24 hrs, normalized against GAPDH, average of 2 experiments
Procedure: NIH 3T3 (mouse; ATCC cat# CRL-1658): Cells were cultured at 37° C. in the presence of 5% CO2 and grown in Dulbecco's modified Eagle's medium (DMEM) with 4 mM L-glutamine adjusted to contain 1.5 g/L sodium bicarbonate and 4.5 g/L glucose and supplemented with fetal bovine serum at a final concentration of 10%, 100 μg/mL of streptomycin, and 100 U/mL penicillin.
as §1, §2, §3, §4, §5, §6, §7, §8
The assays were performed on an ABI 7900 instrument, according to the manufacturer's instructions. […]

Substance	% KD Human [1] [%]	% KD Mouse [2] [%]
25362-DC: STAT1 siNA duplex, human target site 222; modified strands SEQ ID NO: 61 and 62 (chain 1 CUCGAGAGCUGUCUAGGUUTT; chain 2 AACCUAGACAGCUCUCGAGUU; chain 1: DNA at AGT, 2'-fluoro at CU, [invAb] at 5' end, 3' end, backbone not given here; chain 2: sugars from the 5' end rrrffmmmfmmfffffmmmmm, backbone not given here)	87	45
25349-DC: STAT1 siNA duplex, human target site 185; modified strands SEQ ID NO: 35 and 36 (chain 1 CCUGCGCGCAGAAAAGUUUTT; chain 2 AAACUUUUCUGCGCGCAGGUU; chain 1: DNA at AGT, 2'-fluoro at CU, [invAb] at 5' end, 3' end, backbone not given here; chain 2: sugars from the 5' end rrrfffffffmfmfmfmmmmm, backbone not given here)	91	33
25354-DC: STAT1 siNA duplex, human target site 678; modified strands SEQ ID NO: 45 and 46 (chain 1 GAAGGAAGAAAGGAAAAUUTT; chain 2 AAUUUUCCUUUCUUCCUUCUU; chain 1: sugars from the 5' end d17 f2 d2, [invAb] at 5' end, 3' end, backbone not given here; chain 2: sugars from the 5' end r3 f16 m2, backbone not given here)	91	80
25370-DC: STAT1 siNA duplex, human target site 785; modified strands SEQ ID NO: 77 and 78 (chain 1 AAGUCAGAAAUGUGAAGGATT; chain 2 UCCUUCACAUUUCUGACUUUU; chain 1: DNA at AGT, 2'-fluoro at CU, [invAb] at 5' end, 3' end, backbone not given here; chain 2: sugars from the 5' end rrrfffmfmfffffmmfffmm, backbone not given here)	84	76
25357-DC: STAT1 siNA duplex, human target site 2285; modified strands SEQ ID NO: 51 and 52 (chain 1 CUGACAUCAUUCGCAAUUATT; chain 2 UAAUUGCGAAUGAUGUCAGUU; chain 1: DNA at AGT, 2'-fluoro at CU, [invAb] at 5' end, 3' end, backbone not given here; chain 2: sugars from the 5' end rrrffmfmmmfmmfmffmmmm, backbone not given here)	93	29
25350-DC: STAT1 siNA duplex, human target site 190; modified strands SEQ ID NO: 37 and 38 (chain 1 GCGCAGAAAAGUUUCAUUUTT; chain 2 AAAUGAAACUUUUCUGCGCUU; chain 1: DNA at AGT, 2'-fluoro at CU, [invAb] at 5' end, 3' end, backbone not given here; chain 2: sugars from the 5' end rrrfmmmmfffffffmfmfmm, backbone not given here)	82	31
25356-DC: STAT1 siNA duplex, human target site 1115; modified strands SEQ ID NO: 49 and 50 (chain 1 GCUUGGAUCAGCUGCAGAATT; chain 2 UUCUGCAGCUGAUCCAAGCUU; chain 1: DNA at AGT, 2'-fluoro at CU, [invAb] at 5' end, 3' end, backbone not given here; chain 2: sugars from the 5' end rrrfmfmmffmmfffmmmfmm, backbone not given here)	43	35
25346-DC: STAT1 siNA duplex, human target site 837; modified strands SEQ ID NO: 29 and 30 (chain 1 CCUGGAAGAUUUACAAGAUTT; chain 2 AUCUUGUAAAUCUUCCAGGUU; chain 1: DNA at AGT, 2'-fluoro at CU, [invAb] at 5' end, 3' end, backbone not given here; chain 2: sugars from the 5' end rrrffmfmmmffffffmmmmm, backbone not given here)	62	31
25365-DC: STAT1 siNA duplex, human target site 431; modified strands SEQ ID NO: 67 and 68 (chain 1 CCAUGGAAAUCAGACAGUATT; chain 2 UACUGUCUGAUUUCCAUGGUU; chain 1: DNA at AGT, 2'-fluoro at CU, [invAb] at 5' end, 3' end, backbone not given here; chain 2: sugars from the 5' end rrrfmfffmmfffffmfmmmm, backbone not given here)	87	80
25360-DC: STAT1 siNA duplex, human target site 1793; modified strands SEQ ID NO: 57 and 58 (chain 1 CCAGGAAUCUGUCCUUCUUTT; chain 2 AAGAAGGACAGAUUCCUGGUU; chain 1: DNA at AGT, 2'-fluoro at CU, [invAb] at 5' end, 3' end, backbone not given here; chain 2: sugars from the 5' end rrrmmmmmfmmmfffffmmmm, backbone not given here)	90	73
25348-DC: STAT1 siNA duplex, human target site 746; modified strands SEQ ID NO: 33 and 34 (chain 1 GCACAGUGAUGUUAGACAATT; chain 2 UUGUCUAACAUCACUGUGCUU; chain 1: DNA at AGT, 2'-fluoro at CU, [invAb] at 5' end, 3' end, backbone not given here; chain 2: sugars from the 5' end rrrfffmmfmffmffmfmfmm, backbone not given here)	51	37
25373-DC: STAT1 siNA duplex, human target site 2160; modified strands SEQ ID NO: 83 and 84 (chain 1 CAGUGAGAGCUCCCGGGAATT; chain 2 UUCCCGGGAGCUCUCACUGUU; chain 1: DNA at AGT, 2'-fluoro at CU, [invAb] at 5' end, 3' end, backbone not given here; chain 2: sugars from the 5' end rrrffmmmmmfffffmffmmm, backbone not given here)	30	24
25366-DC: STAT1 siNA duplex, human target site 965; modified strands SEQ ID NO: 69 and 70 (chain 1 UGCUUGACAAUAAGAGAAATT; chain 2 UUUCUCUUAUUGUCAAGCAUU; chain 1: DNA at AGT, 2'-fluoro at CU, [invAb] at 5' end, 3' end, backbone not given here; chain 2: sugars from the 5' end rrrfffffmffmffmmmfmmm, backbone not given here)	88	86
